Here are results for 1 compound from US5036008A, “Antitumor antibiotic BU-3285T” (Bristol-Myers Company, priority 1990, dated 1991).

Converted amounts (≈) assume the structure as drawn.

For one data set, the system named is P388 leukemia. Put plainly: In vivo antitumor activity against P388 leukemia (Table 8). The following applies: P388 leukemia in mice.
Data set [1] has as its system B16-F10 (murine melanoma) cells. Put plainly: In vitro cytotoxicity (Table 14). The format is cell-based. The following applies: Mus musculus; B16-F10, 72 hours, neutral red; read-out: IC50.
Procedure: (§2) B16-F10 (murine melanoma), HCT-116 (human colon carcinoma), A549 (human lung carcinoma) and A549/VP29 (an etoposide-resistant subline of A549) were grown in Eagle's MEM (Nissui) supplemented with FCS (fetal calf serum, 10%) and non-essential amino acids (B16-F10), or in McCoy's 5A medium (Gibco) with FCS (10%), essential and non-essential amino acids, vitamins and antibiotics (HCT-116 and both of A549) at 37° C. under a humidified atmosphere in a 5% CO2 incubator. Exponentially growing B16-F10, HCT-116 and A549 cells were harvested, counted and suspended in the culture medium at 1.5×10^4, 3×10^4 and 3×10^4 cells/ml, respectively. After planting 180 μl of cell suspension into wells of a 96-well microtiter plate on day 0, the test materials (20 μl) were added on day 1 and the plates were incubated for 72 hours. The cytotoxic activity was colorimetrically determined at 540 nm after staining viable cells with neutral red solution.
For data set [2], the system named is HCT-116 (human colon carcinoma) cells. Briefly: In vitro cytotoxicity (Table 14). The format is cell-based. The following applies: HCT-116, 72 hours, neutral red, read-out: IC50.
Procedure: as §2
Data set [3] deals with A549 (human lung carcinoma) cells. Put plainly: In vitro cytotoxicity (Table 14). The format is cell-based. The following applies: A549, 72 hours, neutral red, read-out: IC50.
Procedure: as §2
The subject of data set [4] is DNA biosynthesis in L1210 leukemia cells. Briefly: Inhibition of macromolecule biosynthesis, DNA (Table 15). The format is cell-based, murine. Here is the method:
(§1) Inhibitory effects of the above compounds on macromolecule (DNA, RNA and protein) biosynthesis were determined in cultured L1210 murine leukemia cells. The cells (5×10^5 cells/ml) were incubated with the test materials at 37° C. for 15 minutes and then further incubated for 60 minutes after the addition of labeled precursor, ^3 H-thymidine, ^14 C-uridine or ^3 H-leucine into the cultured mixture. After washing with chilled 5% trichloroacetic acid solution, the radioactivity incorporated into the acid-insoluble fraction of the cells was determined with a liquid scintillation counter.

For data set [5], the system named is RNA biosynthesis in L1210 leukemia cells. Put plainly: Inhibition of macromolecule biosynthesis, RNA (Table 15). The format is cell-based, murine. The following applies: Mus musculus, labeled precursor, 15 min + 60 min, 37° C., read-out: IC50, RNA synthesis. The method, then:
as §1

Data set [6] relates to protein biosynthesis in L1210 leukemia cells. Put plainly: Inhibition of macromolecule biosynthesis, protein (Table 15). The following applies: Mus musculus, labeled precursor, 15 min + 60 min, 37° C., read-out: IC50, protein synthesis. The format is cell-based, murine. The method, then: as §1
A further data set can be described thus: Solubility. The format is physicochemical.
In data set [7] the test system is A549/VP29 (etoposide-resistant subline of A549) cells. Briefly: In vitro cytotoxicity (Table 14).
Procedure: (§3) After planting 180 μl of cell suspension into wells of a 96-well microtiter plate on day 0, the test materials (20 μl) were added on day 1 and the plates were incubated for 72 hours. The cytotoxic activity was colorimetrically determined at 540 nm after staining viable cells with neutral red solution.
Data set [8] has as its system murine and human tumor cell lines. Put plainly: In vitro cytotoxicity, overall statement. The following applies: murine and human tumor cell lines.
Procedure: as §3
In another data set the test system is fungi. Briefly: In vitro antifungal activity, overall statement. Conditions: various fungi.

Procedure for fungi: In vitro antifungal activity was determined against various fungi by the serial agar dilution method. Sabouraud dextrose agar (pH 7.0) was used for the experiment. The inoculum size was adjusted to 10^6 CFU/ml. After incubation at 28° C. for 40 hours, the minimum inhibitory concentration (MIC) was examined.

`CCCCC/C=C/C=C\C=C/C(O)C(C)C(O)C/C=C/C1OC(=O)C=CC1O` (stereo not shown) [BU-3285T desulfate]: in the data set on P388 leukemia, the “in vivo antitumor activity” value is reported as “not active”. In addition, the IC50 in data set [1] is 14 µg/mL (≈ 35.8 µM); in [2], 5.5 µg/mL (≈ 14.1 µM); in [3] it was 13 µg/mL (≈ 33.3 µM); in data set [4] (Mus musculus, L1210, labeled precursor, 15 min + 60 min, 37° C., read-out: IC50, DNA synthesis) it was > 100 µg/mL; in data set [5], 6.1 µg/mL; in data set [6], 8.1 µg/mL. In data set [7] (A549/VP29, 72 hours, neutral red), this compound showed an IC50 of 15 µg/mL (≈ 38.4 µM). Also, the “inhibitory effect on DNA synthesis” value in data set [4] (at 100 μg/ml, the highest concentration tested) is listed as “no significant inhibitory effect”. For the same compound, the solubility in acetone entry in “Solubility” (acetone) is given as “soluble”. Further, in “Solubility” (carbon tetrachloride), the “solubility in carbon tetrachloride” value is given as “insoluble”. Also, the “solubility in dimethyl sulfoxide” value in “Solubility” (dimethyl sulfoxide) is recorded as “soluble”. In the data set “Solubility” (ethanol), the solubility in ethanol result is “soluble”. The solubility in methanol entry in the data set “Solubility” (methanol) is “soluble”. For the same compound, in the data set “Solubility” (n-hexane), the solubility in n-hexane result was “insoluble”. Further, the solubility in water result in the data set “Solubility” (water) was “slightly soluble”. The “cytotoxicity against resistant A549/VP29 compared with parent cell line” value in data set [7] (vs A549 parent) is “almost the same cytotoxicity”. Besides, the cytotoxicity in vitro entry in data set [8] is recorded as “quite active”. In the data set with fungi, the “antifungal activity in vitro” value is given as “no activity against fungi in vitro”.
